Reference: patent US20200289645A1, “TREATMENTS AND METHODS FOR CONTROLLING HYPERTENSION” (Georgetown University, priority 2017, published 2020)
Entries after “also recorded” stand apart in the source; their conditions may differ.

What was measured:
[1] = test system: conscious transgenic mice; test: Mean arterial pressure (MAP) by telemetry in conscious conditional BP1 transgenic mice; format: in vivo; details: night time MAP
Procedure: FIG. 2 depicts the effect of conditional expression of the BP1 transgene and of inhibitors on mean arterial pressure (MAP) and heart rate (HR). 2A, 2B, Circadian changes in MAP (A) and HR (B) by telemetry of conscious mice. Averages for 10 days before (BP1 OFF, open symbols) and 10 days after the induction of the BP1 transgene (BP1 ON, closed symbols) relative to the 24 hour clock time. Dark and light periods are indicated. Mean±SEM values (for n=10 time points) from one representative animal (total n=6). P<0.0001 by non-linear regression analysis and ANOVA. 2C, Effect of induction of BP1 transgene expression on night time MAP. Gene expression was induced by switching from a tetracycline containing to a regular chow (+DOX to −DOX; open and filled circles). Non-transgenic littermates (non-TG; triangles) were subjected to the same diet schedule. Mean±SEM of night time MAP; n=6 per group. ANOVA analysis of BP1 ON versus OFF or versus control group. ***, P<0.0001. 2D, 2E, Effect of treatment with candesartan (D) or tempol (E) on night time MAP of animals with the BP1 transgene OFF or ON. Mean±SEM; n=5 per group. *, P<0.05; **, P<0.01; ***, P<0.0001 by ANOVA.
To test the effect of conditional expression of BP1, mean arterial pressure (MAP) was monitored by telemetry in conscious transgenic mice. Under control conditions (BP1 OFF) there was a circadian rhythm of MAP that varied by 20 mm Hg between periods of activity (night time) and rest (day time). A sinus wave function described the day/night variation of the data (FIG. 2A). […] This overall increase in MAP coincided with a significant decrease in the heart rate and a dampened amplitude of circadian regulation (FIG. 2B). The increase of blood pressure occurred within two days of a switch to the tetracycline-free, regular diet in parallel with the induction of the BP1 transgene (FIG. 2C).
The increase in MAP and decrease in heart rate after induction of BP1 expression (FIG. 2A,B) was reminiscent of an angiotensin-like vasopressor effect that depends on reactive oxygen species (ROS) signaling. […]

FGF2−/− mice = test: Telemetric MAP in FGF2-/- mice after exogenously administered AngII; format: in vivo; details: FGF2−/− relative to wild-type mice
From the text: Kidneys contain amongst the highest concentrations of FGF2 protein that is immobilized in the extracellular matrix and can be released by BP1. To assess a contribution by FGF2, the efficacy of AngII was investigated and the crosstalk with BP1 in renal afferent arterioles from FGF2−/− mice. […] Also, the effect of exogenously administered AngII on MAP was reduced.

[2] = test system: isolated renal afferent arterioles; test: Isolated perfused renal afferent arteriole contractility; format: cell-based, mice
From the text: FIG. 4 depicts the effect of BP1 on isolated renal afferent arteriole contractility. 4A, Isolated perfused renal afferent arteriole mounted on a perfusion pipette with diameter recorded. The internal diameter is 10 to 11 micrometers under control conditions (=100%). 4B to 4D, Impact of BP1 induction and/or FGF2 knockout (FGF2−/−) on angiotensin II (AngII) or norepinephine (NE) contractility. 4B, Effect of conditional BP1 expression (BP1 ON/OFF). […] The effect of AngII in FGF2−/− mice is shown for comparison (see panel C). 4C, Effect of AngII in afferent arterioles from FGF2−/− mice. […] BP1 alone or FGF2 alone are shown for comparison. 4D, Effect of NE in afferent arterioles from wt and FGF2−/− mice. Contractility induced by NE is not affected in FGF2−/− mice.
Isolated vessels provide an approach for the analysis of vascular function that is not affected by systemic cardiovascular regulation in the intact animal. BP1 up-regulation related to human hypertension was found in the kidneys that are key organs in systemic blood pressure regulation. Thus, the impact of BP1 expression was evaluated in isolated renal afferent arterioles that are the major renal resistance vessels. […] Addition of AngII to this preparation leads to a concentration-dependent constriction. […] Thus, the AngII contractile effect depends on FGFR signaling in isolated vessels as well as in arterioles in vivo (FIG. 3B).
The blockade of AngII effects in vessels from wt mice by an FGFR kinase inhibitor (FIG. 4B) corroborates the crucial role of FGF signaling for AngII efficacy. It is noteworthy that vessels from FGF2−/− mice still contracted in response to other ligands. For example, the effect of norepinephrine (NE) was indistinguishable between FGF2−/− and wt controls (FIG. 4D) indicating a selective crosstalk between AngII and FGF signaling. Renal AngII receptor 1 (AT1R) mRNA was not changed upon induction of BP1 expression or in FGF2−/− mice.
Because FGF2 and BP1 are extracellularly acting proteins, recombinant proteins were added to renal afferent arterioles from FGF2−/− mice to assess if this would rescue AngII vasoconstriction.

cremaster arterioles = test: Cremaster arteriole contractility in vivo (superfusion, intravital microscopy); parameters: species or system mice
Procedure: FIG. 3 depicts the effect of the induction of BP1 expression on cremaster arteriole contractility in vivo. 3A, Representative images of a single arteriole in a live animal at baseline, and after constriction or dilation by superfusion with AngII or acetylcholine respectively. The vessel diameter is recorded by intravital microphotography. 3B, Dose-response of AngII on arteriole diameter in mice with BP1 OFF (open symbols) or ON (for 48 hours; closed symbols). The FGFR kinase inhibitor PD173074 (PD) was administered intraperitoneally to a subset of animals (red symbols). […] 3C, Dose response of Phenylephrine (PE) on cremaster arteriole diameter in mice with BP1 OFF (open symbols) or ON (for 48 hours; closed symbols). Mean±SEM, n=4 animals/group.
To evaluate whether conditional BP1 expression sensitized resistance vessels in vivo, cremaster arterioles were exposed in anesthetized mice and superfused locally with vasoconstrictor or -dilator ligands. Representative intravital microscopic images of an arteriole at baseline, with AngII (constriction) or acetylcholine (dilation) superfusion is shown in FIG. 3A. […] This sensitization was prevented by pretreatment of animals with the FGFR kinase inhibitor PD173074 23 (FIG. 3B).
Thus, phenylephrine (PE) was selected as a ligand that activates alphal-adrenergic receptors. […] Neither the EC50 (2 μM) nor the maximal effect of PE were different between the BP1 ON and OFF groups (FIG. 3C). Thus, conditional expression of BP1 sensitizes arterioles to AngII in vivo. This sensitization was dependent on FGFR signaling.

Compound: CC1(C)CC(O)CC(C)(C)N1[O] [Tempol, tempol]
- effect on basal MAP ([1]; BP1 OFF): reduced basal MAP
- effect on increase of MAP after BP1 induction [1]: prevented the increase in MAP after BP1 induction
- effect on increase of MAP after BP1 induction ([1]; listed as tempol): prevented

Compound: CC[C@H](C)[C@H](NC(=O)[C@H](Cc1ccc(O)cc1)NC(=O)[C@@H](NC(=O)[C@H](CCCNC(=N)N)NC(=O)[C@@H](N)CC(=O)O)C(C)C)C(=O)N[C@@H](Cc1c[nH]cn1)C(=O)N1CCC[C@H]1C(=O)N[C@@H](Cc1ccccc1)C(=O)O [AngII, Angiotensin II]
- effect of exogenously administered AngII on MAP (FGF2−/− mice): reduced
- AngII effect in afferent arterioles after conditional BP1 transgene expression ([2]; BP1 ON versus OFF): increases the AngII effect; also recorded: significantly enhanced effect
- contraction of afferent arterioles from FGF2-/- mice ([2]; FGF2−/− mice): abolished; also recorded: failed to induce a contraction

Compound: CNC[C@H](O)c1cccc(O)c1 [PE, phenylephrine]
- sensitization of vessels by BP1 expression (cremaster arterioles; BP1 ON versus OFF): did not sensitize
- EC50 (cremaster arterioles; Mus musculus, not different between BP1 ON and OFF groups, read-out: EC50 of PE on cremaster arteriole diameter): 2000 nM

Compound: FGF2: recombinant fibroblast growth factor 2 protein
- rescue of AngII vasoconstriction in afferent arterioles from FGF2-/- mice ([2]; recombinant proteins added, 20 ng/ml for 30 min): did not impact the AngII response

Compound: CCN(CC)CCCCNc1ncc2cc(-c3cc(OC)cc(OC)c3)c(NC(=O)NC(C)(C)C)nc2n1 [PD173074]
- effect on AngII constriction of afferent arterioles ([2]; 100 nM pretreatment of vessels): inhibited the effect of AngII
- effect on AngII response in control animals (cremaster arterioles; BP1 OFF, intraperitoneal): small and insignificant effect
- effect on BP1-induced sensitization to AngII vasoconstriction (cremaster arterioles; BP1 ON, pretreatment, intraperitoneal): prevented

Compound: NC[C@H](O)c1ccc(O)c(O)c1 [norepinephrine]
- contractility in FGF2-/- versus wt afferent arterioles [2]: indistinguishable
- contractility in FGF2-/- versus wt afferent arterioles ([2]; listed as NE): not affected
